The compounds below were run against HCV NS3-4A serine protease (full-length NS3-4A protein) (Hepatitis C virus genotype 1a (isolate 1) (HCV), UniProt P26664) (assay: HCV NS3-4A protease assay). Conditions: strain HCV-1, fluorogenic peptide substrate, read-out: Protease assay Ex. 12 IC50.
Format: biochemical, HCV genotype 1a
Protocol: The inhibitory activity of certain compounds of Table A against HCV NS3-4A serine protease is determined in a homogenous assay using the full-length NS3-4A protein (genotype 1a, strain HCV-1) and a commercially available internally-quenched fluorogenic peptide substrate as described by Taliani, M., et al. 1996 Anal. Biochem. 240:60-67, which is incorporated by reference in its entirety.

Sequence of HCV NS3-4A serine protease (full-length NS3-4A protein) (P26664 1027-1657): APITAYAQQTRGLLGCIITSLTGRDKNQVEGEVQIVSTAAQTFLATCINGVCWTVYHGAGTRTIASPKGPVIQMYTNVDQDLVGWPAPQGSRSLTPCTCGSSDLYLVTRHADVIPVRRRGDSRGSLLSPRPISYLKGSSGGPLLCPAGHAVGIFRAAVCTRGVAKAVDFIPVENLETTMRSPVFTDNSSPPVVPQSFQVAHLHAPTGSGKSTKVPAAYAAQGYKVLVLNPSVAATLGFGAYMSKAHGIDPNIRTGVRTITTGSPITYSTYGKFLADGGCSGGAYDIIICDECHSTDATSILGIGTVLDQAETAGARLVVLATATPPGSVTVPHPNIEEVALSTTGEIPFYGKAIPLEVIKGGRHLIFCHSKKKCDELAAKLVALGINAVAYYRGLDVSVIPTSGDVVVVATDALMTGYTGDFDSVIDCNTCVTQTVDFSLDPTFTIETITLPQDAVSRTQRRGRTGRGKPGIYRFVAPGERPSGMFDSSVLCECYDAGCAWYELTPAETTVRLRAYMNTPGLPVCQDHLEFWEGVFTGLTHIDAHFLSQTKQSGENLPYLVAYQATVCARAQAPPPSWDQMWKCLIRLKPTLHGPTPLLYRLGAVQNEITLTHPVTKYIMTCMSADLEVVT
Sequence of HCV NS3-4A serine protease (full-length NS3-4A protein) (P26664 1658-1711 partner): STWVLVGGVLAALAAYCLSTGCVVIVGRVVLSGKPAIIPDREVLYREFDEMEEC

| SMILES | IC50 |
| --- | --- |
| C=C[C@@H]1C[C@]1(NC(=O)[C@@H]1C[C@@]2(CN1C(=O)[C@@H](NC(=O)[C@@H](NC(=O)[C@@H]1CCCN1CC)C1CCCCC1)C1(C)CCOCC1)C(C)(C)C21CCC1)C(=O)NS(=O)(=O)N(CC)CC [Compound 154, (5R,8S)-7-[(2S)-2-{[(2S)-2-cyclohexyl-2-({[(2S)-1-ethylpyrrolidin-2-yl]carbonyl}amino)acetyl]amino}-2-(4-methyltetrahydro-2H-pyran-4-yl)acetyl]-N-[(1R,2S)-1-{[(diethylamino)sulfonyl]carbamoyl}-2-vinylcyclopropyl]-10,10-dimethyl-7-azadispiro[3.0.4.1]decane-8-carboxamide] | 2.8 nM |
| C=C[C@@H]1C[C@]1(NC(=O)[C@@H]1C[C@@]2(CN1C(=O)[C@@H](NC(=O)[C@@H](NC(=O)[C@@H]1CCCCN1CCF)C1CCCCC1)C1CCOCC1)C(C)(C)C21CCC1)C(=O)NS(=O)(=O)N1CCCC1 [Compound 75, (5R,8S)-7-[(2S)-2-{[(2S)-2-cyclohexyl-2-({[(2S)-1-(2-fluoroethyl)piperidin-2-yl]carbonyl}amino)acetyl]amino}-2-(tetrahydro-2H-pyran-4-yl)acetyl]-10,10-dimethyl-N-{(1R,2S)-1-[(pyrrolidin-1-ylsulfonyl)carbamoyl]-2-vinylcyclopropyl}-7-azadispiro[3.0.4.1]decane-8-carboxamide] | 30 nM |
| C=C[C@@H]1C[C@]1(NC(=O)[C@@H]1C[C@@]2(CN1C(=O)[C@@H](NC(=O)[C@@H](NC(=O)[C@@H]1CCCCN1C(C)C)C1CCCCC1)C(C)(C)C)C(C)(C)C21CCC1)C(=O)NS(=O)(=O)N1CCCC1 [Compound 13, (5R,8S)-7-[(2S)-2-{[(2S)-2-cyclohexyl-2-({[(2S)-1-isopropylpiperidin-2-yl]carbonyl}amino)acetyl]amino}-3,3-dimethylbutanoyl]-10,10-dimethyl-N-{(1R,2S)-1-[(pyrrolidin-1-ylsulfonyl)carbamoyl]-2-vinylcyclopropyl}-7-azadispiro[3.0.4.1]decane-8-carboxamide] | 3 nM |
| C=C[C@@H]1C[C@]1(NC(=O)[C@@H]1C[C@@]2(CN1C(=O)[C@@H](NC(=O)[C@@H](NC(=O)[C@@H]1CCCCN1CCOC)C1CCCCC1)C(C)(C)C)C(C)(C)C21CCC1)C(=O)NS(=O)(=O)N1CCCC1 [Compound 33, (5R,8S)-7-[(2S)-2-{[(2S)-2-cyclohexyl-2-({[(2S)-1-(2-methoxyethyl)piperidin-2-yl]carbonyl}amino)acetyl]amino}-3,3-dimethylbutanoyl]-10,10-dimethyl-N-{(1R,2S)-1-[(pyrrolidin-1-ylsulfonyl)carbamoyl]-2-vinylcyclopropyl}-7-azadispiro[3.0.4.1]decane-8-carboxamide] | 3.5 nM |
| C=C[C@@H]1C[C@]1(NC(=O)[C@@H]1C[C@@]2(CN1C(=O)[C@@H](NC(=O)[C@@H](NC(=O)[C@@H]1CCCCN1C(C)C)C1CCCCC1)C(C)(C)C)C(C)(C)C21CCC1)C(=O)NS(=O)(=O)N(CC)C(C)C [Compound 110, (5R,8S)-7-[(2S)-2-{[(2S)-2-cyclohexyl-2-({[(2S)-1-isopropylpiperidin-2-yl]carbonyl}amino)acetyl]amino}-3,3-dimethylbutanoyl]-N-[(1R,2S)-1-({[ethyl(isopropyl)amino]sulfonyl}carbamoyl)-2-vinylcyclopropyl]-10,10-dimethyl-7-azadispiro[3.0.4.1]decane-8-carboxamide] | 8 nM |
| C=C[C@@H]1C[C@]1(NC(=O)[C@@H]1C[C@@]2(CN1C(=O)[C@@H](NC(=O)[C@@H](NC(=O)[C@@H]1CCCCN1C(C)C)C(C)(C)C)C(C)(C)C)C(C)(C)C21CCC1)C(=O)NS(=O)(=O)N1CCOCC1 [Compound 6, (5R,8S)-7-[(2S)-2-{[(2S)-2-({[(2S)-1-isopropylpiperidin-2-yl]carbonyl}amino)-3,3-dimethylbutanoyl]amino}-3,3-dimethylbutanoyl]-10,10-dimethyl-N-{(1R,2S)-1-[(morpholin-4-ylsulfonyl)carbamoyl]-2-vinylcyclopropyl}-7-azadispiro[3.0.4.1]decane-8-carboxamide] | 45 nM |
| C=C[C@@H]1C[C@]1(NC(=O)[C@@H]1C[C@@]2(CN1C(=O)[C@@H](NC(=O)[C@@H](NC(=O)[C@@H]1CCCN1CC)C1CCCCC1)C(C)(C)C)C(C)(C)C21CCC1)C(=O)NS(=O)(=O)N1CCCCC1 [Compound 95, (5R,8S)-7-[(2S)-2-{[(2S)-2-cyclohexyl-2-({[(2S)-1-ethylpyrrolidin-2-yl]carbonyl}amino)acetyl]amino}-3,3-dimethylbutanoyl]-10,10-dimethyl-N-{(1R,2S)-1-[(piperidin-1-ylsulfonyl)carbamoyl]-2-vinylcyclopropyl}-7-azadispiro[3.0.4.1]decane-8-carboxamide] | 5 nM |
| C=C[C@@H]1C[C@]1(NC(=O)[C@@H]1C[C@@]2(CN1C(=O)[C@@H](NC(=O)[C@@H](NC(=O)[C@H]1CCCCN1C(C)C)C1CCCCC1)C(C)(C)C)C(C)(C)C21CCC1)C(=O)NS(=O)(=O)N1CCCC1 [Compound 47, (5R,8S)-7-[(2S)-2-{[(2S)-2-cyclohexyl-2-({[(2R)-1-isopropylpiperidin-2-yl]carbonyl}amino)acetyl]amino}-3,3-dimethylbutanoyl]-10,10-dimethyl-N-{(1R,2S)-1-[(pyrrolidin-1-ylsulfonyl)carbamoyl]-2-vinylcyclopropyl}-7-azadispiro[3.0.4.1]decane-8-carboxamide] | 4.8 nM |
| C=C[C@@H]1C[C@]1(NC(=O)[C@@H]1C[C@@]2(CN1C(=O)[C@@H](NC(=O)[C@@H](NC(=O)[C@@H]1CCCCN1CC)C1CCCC1)C(C)(C)C)C(C)(C)C21CCC1)C(=O)NS(=O)(=O)N(CC)CC [Compound 81, (5R,8S)-7-[(2S)-2-{[(2S)-2-cyclopentyl-2-({[(2S)-1-ethylpiperidin-2-yl]carbonyl}amino)acetyl]amino}-3,3-dimethylbutanoyl]-N-[(1R,2S)-1-{[(diethylamino)sulfonyl]carbamoyl}-2-vinylcyclopropyl]-10,10-dimethyl-7-azadispiro[3.0.4.1]decane-8-carboxamide] | 4 nM |
| C=C[C@@H]1C[C@]1(NC(=O)[C@@H]1C[C@@]2(CN1C(=O)[C@@H](NC(=O)[C@@H](NC(=O)[C@@H]1CCCN1C1CCCC1)C1CCCCC1)C(C)(C)C)C(C)(C)C21CCC1)C(=O)NS(=O)(=O)N1CCCC1 [Compound 28, (5R,8S)-7-[(2S)-2-{[(2S)-2-cyclohexyl-2-({[(2S)-1-cyclopentylpyrrolidin-2-yl]carbonyl}amino)acetyl]amino}-3,3-dimethylbutanoyl]-10,10-dimethyl-N-{(1R,2S)-1-[(pyrrolidin-1-ylsulfonyl)carbamoyl]-2-vinylcyclopropyl}-7-azadispiro[3.0.4.1]decane-8-carboxamide] | 2 nM |
| C=C[C@@H]1C[C@]1(NC(=O)[C@@H]1C[C@@]2(CN1C(=O)[C@@H](NC(=O)[C@@H](NC(=O)c1cccnc1N(C)C)C1CCCCC1)C(C)(C)C)C(C)(C)C21CCC1)C(=O)NS(=O)(=O)N1CCCC1 [Compound 70, (5R,8S)-7-[(2S)-2-{[(2S)-2-cyclohexyl-2-({[2-(dimethylamino)pyridin-3-yl]carbonyl}amino)acetyl]amino}-3,3-dimethylbutanoyl]-10,10-dimethyl-N-{(1R,2S)-1-[(pyrrolidin-1-ylsulfonyl)carbamoyl]-2-vinylcyclopropyl}-7-azadispiro[3.0.4.1]decane-8-carboxamide] | 35 nM |

— patent US8613914B2, “Peptidomimetic sulfamide compounds and antiviral uses thereof” (Novartis AG, priority 2009, dated 2013)
